{"source": "patent US12448425B2", "about": "“Therapeutic peptides” (Board of Regents, The University of Texas System, priority 2019, dated 2025)", "key": {"EphB4 and Crk1": {"tested_on": "EphB4 and Crk1", "test": "Phosphorylation of EphB4 and Crk1 in A2780cp20 cells (IP/immunoblot)", "type": "cell-based, human", "experimental": "FIGS. 2A-C: BIDEN-AP acts as an EphB4 agonist. (FIG. 2A) BIDEN-AP induced phosphorylation of EphB4 and the associated […] (Crk1). After 16 h serum starvation, A2780cp20 cells were incubated with EFNB2-Fc (20 nM), TNYL-RAW (SEQ ID NO: 12) (50 μM), or BIDEN-AP (50 μM) for 30 min or 2 h. The uncropped blots were available at Supplemental FIG. 11. (FIG. 2B) BIDEN-AP inhibited A2780cp20 cell invasion compared to untreated control (CTL). A modified Boyden transwell chamber coated with human defined matrigel was used. Experiments were performed in triplicate. Data are presented as mean±SD. ***p<0.001. (FIG. 2C) Alexa647-BIDEN-AP was internalized via receptor-mediated endocytosis. A2780cp20 cells were incubated at 37° C. with Alexa647-BIDEN-AP (0.05 μM), Alexa647-TNYL-RAW (SEQ ID NO: 12) (0.05 μM), or Alexa647-BIDEN-AP (0.05 μM) plus unlabeled TNYL-RAW (SEQ ID NO: 12) (5 μM, blocking). Alexa647-BIDEN-AP but not Alexa647-TNYL-RAW (SEQ ID NO: 12) was internalized into the A2780cp20 cells.\nTotal protein lysates were harvested and subjected to Nupage-SDS separation followed by immunoblotting. […] CTL, untreated control. The uncropped blots were available at Supplemental FIG. 11.\nImmunoblotting, immunoprecipitation, and co-immunoprecipitation. […] The protein concentrations were determined by using a BCA Protein Assay Reagent kit (Pierce Biotechnology, Rockford, IL). […]"}, "[1]": {"test": "Particle size by transmission electron microscopy", "type": "physicochemical", "experimental": "CCPM-BIDEN-AP conjugation. CCPM with amine functionalized surface was synthesized according to reported procedures (Koolpe et al., 2005). To introduce a maleimide group to the CCPM, an aliquot of N-(γ-maleimidobutyryloxy)-succinimide ester) (GMBS) in DMF ([…], 0.16 mmol) was added into the CCPM ([…], 2.6 nmol nanoparticles) in 1.2 mL of phosphate-buffered saline solution (PBS, pH 8). The mixture was stirred for 3 h at 37° C. The product was purified using a PD-10 column to remove unreacted GMBS. To introduce a sulfhydryl group to BIDEN-AP, the amino acid cysteine was conjugated to the N-terminal amine of BIDEN-AP. The resulting sulfhydryl-containing Cys-BIDEN-AP was mixed with 2 mL of a solution of CCPM-maleimide (0.16 mmol equivalent maleimide) in PBS with a 2:1 molar ratio of Cys-BIDEN-AP to maleimide groups (CCPM). […] The unreacted Cys-BIDEN-AP was quantified on an Agilent 1100 Series LC/MSD-TOF instrument equipped with a Vydac C18 column. The molar ratio of BIDEN-AP to CCPM was calculated on the basis of Cys-BIDEN-AP consumed (total Cys-BIDEN-AP minus remaining Cys-BIDEN-AP). The size of CCPM-BIDEN-AP was determined by transmission electron microscopy (TEM). […]"}}}
{"substance": "CCPM-BIDEN-AP: nano-conjugate of Cys-BIDEN-AP on core-crosslinked polymeric micelles via maleimide (GMBS) (CTNYLFSPNGPIARAW; D-residues)", "values": [{"measurement": "phosphorylation of EphB4 and Crk1 in vitro", "setting": "EphB4 and Crk1", "value": "induce EphB4 and Crk1 phosphorylation"}, {"measurement": "mean diameter (TEM)", "setting": "[1]", "value": "24±3", "unit": "nm"}]}
